Patent publication US7355074B2, “Compounds having aromatic rings and side-chain amide-functionality and a method for transporting monovalent anions across biological membranes using the same” (The University of Maryland, priority 2003, dated 2008)
Marks after values point to notes of the source that are not given here.

Experiments:
[1] = pH-assisted fluorimetric transport assay with calixarene amides (HPTS-loaded liposomes); type: biochemical
Protocol: The ability of 1 and 2 to mediate ion flux across a lipid bilayer was studied fluorimetrically. A solution of 1 or 2 was added to a suspension of EYPC large unilamellar vesicles (LUVs) containing the pH-sensitive dye pyranine. An NaOH solution was added to the extravesicular buffer to create a gradient of approximately one pH unit. The resulting electrostatic potential, caused by proton efflux from the liposomes, can be compensated by cation influx or anion efflux, as mediated by the exogenous ligand. Ion transport across the membrane was signaled by the increase in relative fluorescence that accompanied the rise in intravesicular pH.
Liposome Preparation. EYPC HPTS-Containing LUVs, egg yolk 1-α-phosphatidylcholine (EYPC, 60 mg, […]) was dissolved in a CHCl3MeOH mixture, the solution was evaporated under reduced pressure, and the resulting thin film was dried under high vacuum for 2 h. The lipid film was hydrated in 1.2 mL of phosphate buffer (10 mM sodium phosphage, pH=6.4, 75-100 mM MX, M=Na^+, K^+, Cs^+, X=[…], SO4^2−) containing 10 μM HPTS (pyranine 8-hydroxypyrene-1,3,6-trisulfonic acid trisodium salt) for 2 h. The LUV suspension (1 mL) was submitted to high-pressure extrusion at room temperature (2) extrusions through a 0.1 μM polycarbonate membrane afforded LUVs with a diameter of 100 nm). The LUV suspension was separated from extravesicular dye by size exclusion chromatography (SEC) stationary phase: Sephadex G-10, mobile phase:phosphate buffer) and diluted with the same phosphate buffer to give a stock solution with a lipid concentration of 11 mM (assuming 100% of lipid was incorporated into liposomes).
Fluorimetric Transport Assays. pH-Assisted Transport Assays. Typically, 100 μL of HPTS-loaded vesicles (stock solution) was suspended in 1.85 mL of the corresponding buffer and placed into a fluorimetric cell. HPTS emission at 510 nm was monitored with excitation wavelengths at 403 and 460 nm simultaneously. During the experiment, 20 μL of a 0-10 mM THF solution of the compound of interest was added through an injection port, followed by injection of 21 μL of 0.5 M aqueous NaOH. Addition of the NaOH caused a pH increase of approximately 1 pH unit in the extravesicular buffer. Maximal changes in dye emission were obtained at the end of each experiment by lysis of the liposomes with detergent (40 μL of 5% aqueous Triton x100). The final transport trace was obtained as a ratio of the emission intensities monitored at 460 and 403 nm and normalized to 100% of transport.

[2] = 1H NMR binding experiment in CDCl3, HCl extraction
Protocol: FIG. 7 illustrates a series of […] spectra (400 mHz, CDCl3, 22° C.) of calixarene tetrabutylamide in the presence of different species: (A) the compound alone (5 mm); (B) the compound with 1 equiv. of Bu4 NCl; (C) the compound after washing CDCl3 solution of the compound with an aqueous solution of 0.5 m HCl; (D) after washing CDCl3 solution of the compound with an aqueous solution of 0.5 M H2SO4.
To obtain evidence for Cl^− binding by 2, ^1H NMR experiments were run in CDCl3 using n-Bu4-NCl and HCl as Cl^− sources. Anion receptors usually show chemical shift perturbation upon anion complexation, particularly for amide NH protons that hydrogen bond to the anion. […] Calix[4]arene tetrabutylamide 2 does, however, bind HCl. Thus, shaking a CDCl3 solution of 2 with aqueous HCl led to disappearance of the amide NH proton and a significant upfield shift of the […] protons (FIG. 4c).

[3] = pH-stat fluorescent transport assay with oligophenoxyacetamides (HPTS-loaded liposomes); type: biochemical; settings: 100 mM NaCl inside and outside; 50 μm (10 mol % ligand to lipid ratio)
Protocol: FIGS. 1A and 1B are derived from of pH-stat fluorescent assays with oligophenoxyacetamide compounds 1-6 described herein. Suspensions of EYPC LUVs containing the pH sensitive dye pyranine (ex 405 nm and 460 nm em 510 nm) in a phosphate buffer were used (0.5 mM of lipid, 10 mM NanH3-nPO4 n=1, 2, pH 6.4 100 mM NaCl inside and outside) (A) illustrates initial pseudo-first order rate constants in the presence of 5 μm of ionophores 1-6 (1 mol % injection of 20 μl of 0.5 mM DMSO solution of 1-6 into 1.9 mL of vesicular suspension was followed by injection of 21 μl of 0.5 M NaOH and final lysis of liposomes with Triton X-100; (B) illustrates initial pseudo-first order rate constants assessed for various concentrations of oligomeric ionophores 2-6. The same experimental protocol as in (A) was used. Legend for traces denotes use of oligocompounds 2, 3, 4, 5, 6.
Liposome Preparation for Fluorimetric Assays. Egg yolk L-α-phosphatidylcholine (EYPC ethanol solution, […], 79 μmol) was dissolved in a CHCl3/MeOH mixture, the solution was evaporated under reduced pressure and the resulting thin film was dried under high vacuum for 2 h. The lipid film was hydrated in 1.2 mL of phosphate buffer (10 mM sodium phosphate, pH=6.4, 75-100 mM MnX, M=N^+, K^+, X=Cl^−, SO4^2−, n=1,2) containing 10 μM HPTS (pyranine, 8-hydroxypyrene-1,3,6-trisulfonic acid trisodium salt) for 40 min. During hydration, the suspension was submitted to 5 freeze-thaw cycle (liquid nitrogen, water at rt). The large multilamellar liposome suspension (1 mL) was submitted to high-pressure extrusion at rt (21 extrusions through a 0.1 μm polycarbonate membrane afforded a suspension of LUVs with an average diameter of 100 nm). The LUV suspension was separated from extravesicular dye by size exclusion chromatography (SEC) (stationary phase: Sephadex G-10, mobile phase: phosphate buffer) and diluted with the same phosphate buffer to give a stock solution with a lipid concentration of 11 mM (assuming 100% of lipid was incorporated into liposomes).
pH-state transport assays. Typically, 100 μL of HPTS-loaded vesicles (stock solution) was suspended in 1.9 mL of the corresponding buffer and placed into a fluorimetric cell. The emission of HPTS at 510 nm was monitored with excitation wavelengths at 403 and 460 nm simultaneously. During the experiment, 20 μL of a 0-10 mM DMSO solution of the compounds of interest was added (through an injection port), followed by injection of 21 μL of 0.5 M aqueous NaOH. […] Maximal possible changes in dye emission were obtained at the end of each experiment by lysis of the liposomes with detergent (40 μL of 5% aqueous Triton X100). The final transport trace was obtained as a ratio of the emission intensities monitored at 460 and 403 nm and normalized to 100% of transport. Pseudo-first order rate constants were calculated from slopes of the plot of In([H^+ins]−[H^+out]) versus time, here [H^+ins] and [H^+out] are the intravesicular and extravesicular proton concentrations, respectively. The [H^+out] was assumed to remain constant over the course of the experiment, while [H^+ins] values were calculated for each point from the HPTS emission intensities according to the calibration equation pH=1.1684·log(Io/Il)+6.9807, where Io is the emission intensity with excitation at 460 nm and Il is emission intensity with excitation at 403 nm. The calibration was performed by measuring the HPTS emission intensities and the pH values of a […] HPTS solution in 10 mM phosphate buffer containing 100 mM NaCl (see FIG. s3). The absolute values for rate constants varied depending on the age of the vesicular solution and the actual stock solution of liposomes used.

[4] = intravesicular pH of LUVs experiencing a Cl- gradient (calixarene amides); type: biochemical; settings: NaCl-loaded LUVs in isosmotic Na2SO4 buffer
Protocol: FIG. 8 illustrates changes in intravesicular pH upon addition of calixarene tetrabutylamide and calixarene octabutylamide to NaCl^+ loaded vesicles suspended in a sulfate phosphate buffer (emission of HPTS is used to monitor the pH changes in LUVs). At t=60 s, 20 μL of 500 μM of calixarene tetrabutylamide 2 (top trace) or the octabutylamide 3 (bottom trace) was added to 1.95 mL of a LUV suspension to give 1:100 ligand:lipid molar ratio. At t=500 s, 40 μL of 5% Triton X-100 was added. Intravesicular pH values were obtained as a function of the ratio of HPTS emission intensities at 510 nm, when excited at […]. The calibration was performed by measuring the HPTS emission intensities and the pH values of a […] HPTS solution in 10 mM phosphate buffer containing 100 mM NaCl. The calibration equation obtained (pH=1.1684×log (I0I1)+6.9807, r=0.998, where I0 is the emission intensity with excitation at […]) was used to convert the emission intensities into actual pH values.
The pH reached its maximum 250 s after addition of 2 and held constant until the liposomes were lysed with detergent. […] In effect, compound 2 moves […] along with Cl^− down the chloride gradient, consequently building a pH gradient across the membrane. Therefore, NaCl filled vesicles lose Cl^− and H^+ upon addition of 2 and become more alkaline.
Calcein-Release Assay. Calcein-loaded vesicles (100 μL of the stock solution), filled with a saline phosphate buffer (10 mM sodium phosphate, pH 6.4, […] NaCl), were suspended in 1.85 mL of an isoosmotic phosphate sulfate buffer (10 mM sodium phosphate, pH 6.4^−75 mM (Na2SO4) and placed into a fluorimetric cell. HPTS emission at 510 nm was monitored with excitation wavelengths at 403 and 460 nm simultaneously. During the experiment, 20 μL of a 0-500 μM THF solution of the compound of interest was added through an injection port. Intravesicular pH values were obtained as a function of the ratio of HPTS emission intensities at 510 nm, when excited at 403 and 460 nm. […]

Row | HCl binding [2] | SMILES | ion transport ([1]; 50 μM) | transport activity [3] | drop in rate constant on changing extravesicular electrolyte from NaCl to CsCl [1] | transport activity when buffer changed from NaCl to Na2SO4 [1] | Initial Pseudo-first Order Transport Rate Constants, Na2SO4 ([1]; 5 μM, 100 mM Na2SO4 inside pH 6.4 and outside pH 7.4, not corrected for unmediated exchange) | Initial Pseudo-first Order Transport Rate Constants, CsCl ([1]; 5 μM, 100 mM NaCl inside pH 6.4, 100 mM CsCl outside pH 7.4, not corrected for unmediated exchange) | Initial Pseudo-first Order Transport Rate Constants, KCl ([1]; 5 μM, 100 mM NaCl inside pH 6.4, 100 mM KCl outside pH 7.4, not corrected for unmediated exchange) | Initial Pseudo-first Order Transport Rate Constants, NaCl ([1]; 5 μM, 100 mM NaCl inside pH 6.4, 100 mM NaCl outside pH 7.4, not corrected for unmediated exchange) | rate constant k of ion transport ([1]; Na2SO4 loaded vesicles in isotonic buffer) | rate constant k of ion transport ([1]; NaCl buffer) | cation selectivity of ion transport ([1]; buffers containing Na, K or Cs) | change of intravesicular pH / pH gradient formation [4]
1 | no HCl binding | CCCCNC(=O)COc1ccccc1 [Monomer 1, N-butyl-2-phenoxyacetamide] | no ion transport | some activity | – | – | – | – | – | – | – | – | – | –
2 | – | CCCCN(CCCC)C(=O)COc1c2cccc1Cc1cccc(c1OCC(=O)N(CCCC)CCCC)Cc1cccc(c1OCC(=O)N(CCCC)CCCC)Cc1cccc(c1OCC(=O)N(CCCC)CCCC)C2 [calix[4]arene octabutylamide 3, Calix[4]arene Octabutylamide] | – | – | 3.5 fold | still mediated significant ion transport | 9.1^b,d ×10^−3 s^−1 | 5.4^b,c ×10^−3 s^−1 | 12^b,c ×10^−3 s^−1 | 19^b,c ×10^−3 s^−1 | 0.0091 s⁻¹ | 0.019 s⁻¹ | discriminates between monovalent cations | did not result in formation of a pH gradient
